Measured values published in patent publication US12023334B2, “Composition including rilpivirine and method for treating tumors or cancer” (APTORUM THERAPEUTICS LIMITED, priority 2019, dated 2024).

Legend:
pancreatic cancer cells = conditions: in vitro (PloS ONE 10(6):e0130277, 2015); cited from earlier work
[1] = tested on: PC3 prostate cancer cell lines; conditions: animal experiments (Oncogene 24:3923-3931, 2005); cited from earlier work
A-375 melanoma = conditions: animal experiments (Oncogene 24:3923-3931, 2005); cited from earlier work
U87 glioblastoma cells = conditions: Journal of Cancer 9(1):117-128, 2018; cited from earlier work
HMCB = experiment: EC50 in cancer cell line, rilpivirine alone; type: cell-based; conditions: Homo sapiens, Melanoma
GA-10 = experiment: EC50 in cancer cell line, rilpivirine alone; type: cell-based; conditions: Homo sapiens, Burkitt's lymphoma
T47D = experiment: EC50 in cancer cell line, rilpivirine alone; type: cell-based; conditions: Homo sapiens, Breast
Caki-2 = experiment: EC50 in cancer cell line, rilpivirine alone; type: cell-based; conditions: Homo sapiens, Kidney
TUR = experiment: EC50 in cancer cell line, rilpivirine alone; type: cell-based; conditions: Histiocytic lymphoma
SH-SY5Y cell line = experiment: MTT cell proliferation assay, SH-SY5Y; type: cell-based
Protocol: (§1) In the present invention, the IC50 concentrations required to inhibit the activity of IMR-32 cell line and other neuroblastoma cell lines were determined for rilpivirine and other chemotherapeutic agents, and presented on the two-coordinate plot with x- and y-axes, forming the two points (IC50, rilpivirine, 0) and (0, IC50, chemotherapeutic agents). […] Moreover, the concentration or ratios of rilpivirine in combination with chemotherapeutic agents which provide the same inhibition effect are denoted as point (Crilpivirine, 50, Cchemotherapeutic agents, 50) in the same plot.
(§2) The combination index provides a quantitative measurement of the drug-drug interaction at the given effect level. The combination index (CI) is calculated by following equation: […]
(§3) The IMR-32, SK-N-SH, SH-SY5Y and SK-N-BE(2) tumor cell lines were purchased from American Type Culture Collection (ATCC, Manassas, VA). […] The cells were incubated for 72 hours and then cell proliferation was measured by 3-(4,5-dimethyl-2-thiazolyl)-2,5-diphenyl-2H-tetrazolium bromide (MTT) colorimetric assays (Sigma-Aldrich, Inc., St. Louis, MO). […] Absorbance of each well was measured with a spectrophotometer (uQuant SpectroMAX Gemini Dual-scanning microplate spectro, Bio-tek Instrument Inc.) at 550 nm. Growth inhibition was expressed as the ratio of the mean absorbance of treated cells relative to that of the control.

MOLT-4 = experiment: EC50 in cancer cell line, rilpivirine alone; type: cell-based; conditions: Homo sapiens, Acute lymphoblastic leukemia
SU-DHL-8 = experiment: EC50 in cancer cell line, rilpivirine alone; type: cell-based; conditions: Homo sapiens, Large cell lymphoma
U-937 = experiment: EC50 in cancer cell line, rilpivirine alone; type: cell-based; conditions: Homo sapiens, Histiocytic lymphoma
EM-2 = experiment: EC50 in cancer cell line, rilpivirine alone; type: cell-based; conditions: Homo sapiens, Chronic myelogenous leukemia
MV-4-11 = experiment: EC50 in cancer cell line, rilpivirine alone; type: cell-based; conditions: Homo sapiens, MV4-11, Biphenotypic B myelomonocytic leukemia
BxPC-3 = experiment: EC50 in cancer cell line, rilpivirine alone; type: cell-based; conditions: Homo sapiens, Pancreas
Thp1 = experiment: EC50 in cancer cell line, rilpivirine alone; type: cell-based; conditions: Homo sapiens, THP-1, Acute monocytic leukemia
[2] = tested on: cleaved poly (ADP-ribose) polymerase (PARP) and phosphor-histone H2A.X (p-H2A.X); experiment: Expression of cleaved PARP and p-H2A.X in SK-N-SH; type: cell-based; conditions: increasing rilpivirine 0.12, 0.37, 1.11, 3.3, and 10 μM
COR-L105 = experiment: EC50 in cancer cell line, rilpivirine alone; type: cell-based; conditions: Homo sapiens, NSCLC
IMR-32 cell line = experiment: MTT cell proliferation assay, IMR-32; type: cell-based, human
Protocol: as §1, §2, §3

D283Med = experiment: EC50 in cancer cell line, rilpivirine alone; type: cell-based; conditions: Homo sapiens, D283 Med, Medulloblastoma
Daudi = experiment: EC50 in cancer cell line, rilpivirine alone; type: cell-based; conditions: Homo sapiens, Burkitt's lymphoma
PC-3 = experiment: EC50 in cancer cell line, rilpivirine alone; type: cell-based; conditions: Homo sapiens, Prostate
647-V = experiment: EC50 in cancer cell line, rilpivirine alone; type: cell-based; conditions: Homo sapiens, Bladder
DOHH-2 = experiment: EC50 in cancer cell line, rilpivirine alone; type: cell-based; conditions: Homo sapiens, B-cell lymphoma
IM-9 = experiment: EC50 in cancer cell line, rilpivirine alone; type: cell-based; conditions: Homo sapiens, Multiple myeloma
[3] = tested on: cleaved poly (ADP-ribose) polymerase (PARP) and phosphor-histone H2A.X (p-H2A.X); experiment: Expression of cleaved PARP and p-H2A.X in SK-N-BE(2); type: cell-based; conditions: increasing rilpivirine 0.12, 0.37, 1.11, 3.3, and 10 μM
BV-173 = experiment: EC50 in cancer cell line, rilpivirine alone; type: cell-based; conditions: Homo sapiens, B-cell precursor leukemia (CML)
SNU-16 = experiment: EC50 in cancer cell line, rilpivirine alone; type: cell-based; conditions: Homo sapiens, Stomach
CEM-C2 = experiment: EC50 in cancer cell line, rilpivirine alone; type: cell-based; conditions: Homo sapiens, Acute lymphoblastic leukemia
MES-SA = experiment: EC50 in cancer cell line, rilpivirine alone; type: cell-based; conditions: Homo sapiens, Uterine sarcoma
J-RT3-T3-5 = experiment: EC50 in cancer cell line, rilpivirine alone; type: cell-based; conditions: Homo sapiens, Acute T-cell leukemia
TF-1 = experiment: EC50 in cancer cell line, rilpivirine alone; type: cell-based; conditions: Homo sapiens, Erythroleukemia
U-87 MG = experiment: EC50 in cancer cell line, rilpivirine alone; type: cell-based; conditions: Homo sapiens, Glioblastoma/malignant glioma
SK-N-BE(2) cell line = experiment: MTT cell proliferation assay, SK-N-BE(2); type: cell-based
Protocol: as §1, §2, §3

Jurkat = experiment: EC50 in cancer cell line, rilpivirine alone; type: cell-based; conditions: Homo sapiens, Acute lymphoblastic leukemia
ST486 = experiment: EC50 in cancer cell line, rilpivirine alone; type: cell-based; conditions: Homo sapiens, Burkitt's lymphoma
[4] = Xenograft mouse model, body weight and signs of overt toxicity; type: in vivo, female BALB/c nude mice; conditions: rilpivirine 400 mg/kg once daily for 21 consecutive days, oral
Protocol: (§4) This study employed female BALB/c nude mice, aged 4-5 weeks, obtained from BioLasco Taiwan (under Charles River Laboratories Licensee). The animals were housed in individually ventilated cages (IVC, 36 Mini Isolator system). The allocation for 4 animals was 27×20×14 in cm. All the animals were maintained in a hygienic environment under controlled temperature (20-24° C.) and humidity (30%-70%) with 12-hour light/dark cycle. Free access to standard lab diet [MFG (Oriental Yeast Co., Ltd., Japan)] and autoclaved tap water were granted. All aspects of this work including housing, experimentation, and animal disposal were performed in general accordance with the “Guide for the Care and Use of Laboratory Animals: Eighth Edition” (National Academies Press, Washington, D.C., 2011) in our AAALAC-accredited laboratory animal facility. In addition, the animal care and use protocol was reviewed and approved by the IACUC at Pharmacology Discovery Services, Taiwan.
The IMR-32 tumor cell line was purchased from American Type Culture Collection (ATCC CCL-127, neuroblastoma) and cultured in Pharmacology Discovery Services, Taiwan. The cells were cultured in MEM medium containing 10% fetal bovine serum (FBS), 1 mM sodium pyruvate and 1 mM NEAA at 37° C. in 5% CO2 incubator. Female BALB/c nude mice were used as described in the preceding section. Viable IMR-32 cells (ATCC CCL-127) were subcutaneously (SC) implanted (1×10^7 cells in 1:1 matrigel/complete media mixture at 0.2 mL/mouse) into the right flank of female BALB/c nude mice. Forty-one days post tumor cell implantation (group mean tumor volumes ranging 128 mm^3-130 mm^3), all the animals were randomized into sixteen study groups, each containing eight animals, and dose administrations were initiated (denoted as Day 1). All the experiments were conducted using protocols and conditions approved by the institutional animal care and use committee. The tumor volume, body weight, mortality, and signs of overt toxicity were monitored and recorded twice weekly for 28 days.

MOLT-16 = experiment: EC50 in cancer cell line, rilpivirine alone; type: cell-based; conditions: Homo sapiens, Acute lymphoblastic leukemia
SR = experiment: EC50 in cancer cell line, rilpivirine alone; type: cell-based; conditions: Homo sapiens, Large cell immunoblastic lymphoma
[5] = tested on: cleaved poly (ADP-ribose) polymerase (PARP) and phosphor-histone H2A.X (p-H2A.X); experiment: Expression of cleaved PARP and p-H2A.X in SH-SY5Y; type: cell-based; conditions: increasing rilpivirine 0.12, 0.37, 1.11, 3.3, and 10 μM
SU-DHL-4 = experiment: EC50 in cancer cell line, rilpivirine alone; type: cell-based; conditions: Homo sapiens, B-cell non-Hodgkin lymphoma
EB2 = experiment: EC50 in cancer cell line, rilpivirine alone; type: cell-based; conditions: Homo sapiens, Burkitt's lymphoma
SK-N-AS = experiment: EC50 in cancer cell line, rilpivirine alone; type: cell-based; conditions: Homo sapiens, Neuroblastoma
HuTu80 = experiment: EC50 in cancer cell line, rilpivirine alone; type: cell-based; conditions: Homo sapiens, Duodenum
JVM-2 = experiment: EC50 in cancer cell line, rilpivirine alone; type: cell-based; conditions: Homo sapiens, Mantle cell lymphoma
KU812 = experiment: EC50 in cancer cell line, rilpivirine alone; type: cell-based; conditions: Homo sapiens, Chronic myelogenous leukemia
CHP-212 = experiment: EC50 in cancer cell line, rilpivirine alone; type: cell-based; conditions: Homo sapiens, Neuroblastoma
HUH-6 = experiment: EC50 in cancer cell line, rilpivirine alone; type: cell-based; conditions: Homo sapiens, Liver
SK-N-SH cell line = experiment: MTT cell proliferation assay, SK-N-SH; type: cell-based
Protocol: as §1, §2, §3

PANC-1 = experiment: EC50 in cancer cell line, rilpivirine alone; type: cell-based; conditions: Homo sapiens, Pancreas
RKO-AS45-1 = experiment: EC50 in cancer cell line, rilpivirine alone; type: cell-based; conditions: RKOAS451, Colon
IMR-32 tumor = experiment: Xenograft mouse model of neuroblastoma, tumor volume; type: in vivo, female BALB/c nude mice; conditions: rilpivirine 400 mg/kg once daily for 21 consecutive days, oral; p<0.05
Protocol: as §4
The IMR-32 tumor cell line was purchased from American Type Culture Collection (ATCC CCL-127, neuroblastoma) and cultured in Pharmacology Discovery Services, Taiwan. The cells were cultured in MEM medium containing 10% fetal bovine serum (FBS), 1 mM sodium pyruvate and 1 mM NEAA at 37° C. in 5% CO2 incubator. […] The tumor volume, body weight, mortality, and signs of overt toxicity were monitored and recorded twice weekly for 28 days. […]

DMS273 = experiment: EC50 in cancer cell line, rilpivirine alone; type: cell-based; conditions: Homo sapiens, DMS-273, SCLC
[6] = Homo sapiens, rilpivirine alone, 72 hours

In the case of `O=C1Nc2ccc(Cl)cc2[C@@](C#CC2CC2)(C(F)(F)F)O1` [efavirenz], the “toxic potential against pancreatic cancer cells” value (pancreatic cancer cells) is listed as “high toxic potential”, the “tumorigenic growth of PC3 prostate cancer cell lines” value [1] is listed as “antagonize tumorigenic growth” and the “tumorigenic growth of A-375 melanoma” value (A-375 melanoma) is listed as “antagonize tumorigenic growth”.

In the case of `Cc1ccnc2c1NC(=O)c1cccnc1N2C1CC1` [nevirapine], the “tumorigenic growth of PC3 prostate cancer cell lines” value [1] is listed as “antagonize tumorigenic growth” and the “tumorigenic growth of A-375 melanoma” value (A-375 melanoma) is listed as “antagonize tumorigenic growth”.

For `Cc1cc(C)c(Nc2ccnc(Nc3ccc(C#N)cc3)n2)c(C)c1` [Dapivirine], the “tumor growth of U87 glioblastoma cells” value (U87 glioblastoma cells) is listed as “inhibit tumor growth”.

`Cc1cc(/C=C/C#N)cc(C)c1Nc1ccnc(Nc2ccc(C#N)cc2)n1` [rilpivirine] showed an EC50 (HMCB) of 3.49 µM, an EC50 (GA-10) of 3.7 µM and an EC50 (T47D) of 3.23 µM. The “toxic potential against pancreatic cancer cells” value (pancreatic cancer cells) was “high toxic potential”, the EC50 (Caki-2) was 4.05 µM and the EC50 (TUR) was 2080 nM. The “growth of neuroblastoma cell line under rilpivirine treatment” value (“growth … under rilpivirine treatment” below) (SH-SY5Y cell line) was “successfully inhibited”, the IC50 (SH-SY5Y cell line; [6]) was 3.12 µM and the EC50 (MOLT-4) was 3.75 µM. The EC50 (SU-DHL-8) was 4.19 µM, the EC50 (U-937) was 3.37 µM and the EC50 (EM-2) was 3.96 µM. The EC50 (MV-4-11) was 4.88 µM, the EC50 (BxPC-3) was 11.3 µM and the EC50 (Thp1) was 4.29 µM. The “expression of cleaved PARP and p-H2A.X” value [2] was “increased gradually”, the EC50 (COR-L105) was 3.11 µM and the “growth of neuroblastoma cell line IMR-32” value (IMR-32 cell line; 5 μM rilpivirine treatment for 24 hours) was “significantly inhibited”. The IC50 (IMR-32 cell line; Homo sapiens, IMR-32, rilpivirine alone, 72 hours) was 2970 nM, the EC50 (D283Med) was 3.54 µM and the EC50 (Daudi) was 4.01 µM. It also gave an EC50 (PC-3) of 6.23 µM, an EC50 (647-V) of 12.3 µM and an EC50 (DOHH-2) of 4.45 µM. The EC50 (IM-9) was 4.13 µM, the “expression of cleaved PARP and p-H2A.X” value [3] was “increased gradually” and the EC50 (BV-173) was 3.69 µM. For the same molecule, the EC50 (SNU-16) was 4.23 µM, the EC50 (CEM-C2) was 4.04 µM and the EC50 (MES-SA) was 4.91 µM. For the same molecule, the EC50 (J-RT3-T3-5) was 4.04 µM, the EC50 (TF-1) was 3.76 µM and the EC50 (U-87 MG) was 14.4 µM. The “growth … under rilpivirine treatment” value (SK-N-BE(2) cell line) was “successfully inhibited”, the IC50 (SK-N-BE(2) cell line; Homo sapiens, SKNBE2, rilpivirine alone, 72 hours) was 3.37 µM and the EC50 (Jurkat) was 3.68 µM. The EC50 (ST486) was 3.76 µM, the body weight loss [4] was “not associated with body weight loss” and the overt toxicities [4] was “no overt toxicities were observed”. The tolerability [4] was “well tolerated”, the EC50 (MOLT-16) was 3.38 µM and the EC50 (SR) was 3.78 µM. For the same molecule, the “expression of cleaved PARP and p-H2A.X” value [5] was “increased gradually”, the EC50 (SU-DHL-4) was 4.29 µM and the EC50 (EB2) was 4.81 µM. The EC50 (SK-N-AS) was 4.84 µM, the EC50 (HuTu80) was 3.59 µM and the EC50 (JVM-2) was 2740 nM. For the same molecule, the EC50 (KU812) was 4.09 µM, the EC50 (CHP-212) was 3.26 µM and the EC50 (HUH-6) was 2410 nM. The “growth … under rilpivirine treatment” value (SK-N-SH cell line) was “successfully inhibited”, the IC50 (SK-N-SH cell line; [6]) was 2750 nM and the EC50 (PANC-1) was 8.27 µM. For the same molecule, the EC50 (RKO-AS45-1) was 4.4 µM, the “tumor growth compared to negative control group (vehicle)” value (IMR-32 tumor) was “significantly inhibited” and the EC50 (DMS273) was 4.96 µM.
